According to patent US20190212343A1, “METHODS FOR THE TREATMENT OF DISORDERS RELATED TO PHOSPHORYLATION OF HISTONES” (H. LEE MOFFITT CANCER CENTER AND RESEARCH INSTITUTE, INC., priority 2014, published 2019):

Key:
[1] = system: pY88-H4 epigenetic marks in AR gene; assay: ChIP with pY88-H4 antibodies and real time PCR at the AR gene; assay type: cell-based, human; conditions: LNCaP and VCaP cells grown in the absence of androgen
Method: FIGS. 10A-10C show H4 Y88-phosphorylation occurs within and downstream of AR gene. (FIG. 10A) The human AR gene and two pY88-H4 binding sites are shown. (FIG. 10B) VCaP and (FIG. 10C) LNCaP cells treated with ACK1 inhibitor; ChIP was performed followed by qPCR using primers corresponding to promoter, intron 2, 3′UTR or control region. VCaP: *p<0.05, **p<0.05; LNCaP: *p<0.05, **p<0.05
To determine whether ACK1 modifies chromatin at AR gene locus, LNCaP and VCaP cells grown in the absence of androgen and were treated with AIM-100. Chromatin immunoprecipitation (ChIP) was performed using pY88-H4 antibodies, followed by real time PCR with primers corresponding to the AR promoter, intron 2 and 3′UTR (FIG. 10A). […] These marks were also deposited at 3′UTR of the AR gene but not at the promoter region (FIGS. 10B and 10C).

[2] = system: VCaP cells; assay: Cell proliferation assay, viable cells counted by trypan blue exclusion; assay type: cell-based, human; conditions: androgen-independent VCaP cells, charcoal stripped media, 36 hrs; read-out: IC50, inhibition of cell growth
Method: (§1) FIGS. 5A and 5B show cell proliferation assay. (FIG. 5A) LNCaP and (FIG. 5B) VCaP cells were grown in charcoal stripped media and treated with 1, 2.5, 5 and 10 uM of inhibitors (36 hrs) and number of viable cells were counted by trypan blue exclusion assay
(§2) Applicant also assessed ability of the new Ack1 inhibitors to suppress proliferation of prostate cancer cell lines. […] Overall, it appears that ACK I is needed for androgen-independent growth of prostate cancer cells.

[3] = system: LNCaP cells; assay: as above; assay type: cell-based, human; conditions: charcoal stripped media, 36 hrs, read-out: IC50, inhibition of cell growth
Method: as §1, §2

[4] = biological target: T1, ACK1 (Homo sapiens, UniProt Q07912); assay: In vitro kinase assay with purified ACK1 and H4, immunoblotting with pTyr antibodies; assay type: biochemical; conditions: purified ACK1 and H4, AIM-100 100 nM
T1 construct: made in house; host or cells: insect cells
T1 sequence (Q07912 whole entry): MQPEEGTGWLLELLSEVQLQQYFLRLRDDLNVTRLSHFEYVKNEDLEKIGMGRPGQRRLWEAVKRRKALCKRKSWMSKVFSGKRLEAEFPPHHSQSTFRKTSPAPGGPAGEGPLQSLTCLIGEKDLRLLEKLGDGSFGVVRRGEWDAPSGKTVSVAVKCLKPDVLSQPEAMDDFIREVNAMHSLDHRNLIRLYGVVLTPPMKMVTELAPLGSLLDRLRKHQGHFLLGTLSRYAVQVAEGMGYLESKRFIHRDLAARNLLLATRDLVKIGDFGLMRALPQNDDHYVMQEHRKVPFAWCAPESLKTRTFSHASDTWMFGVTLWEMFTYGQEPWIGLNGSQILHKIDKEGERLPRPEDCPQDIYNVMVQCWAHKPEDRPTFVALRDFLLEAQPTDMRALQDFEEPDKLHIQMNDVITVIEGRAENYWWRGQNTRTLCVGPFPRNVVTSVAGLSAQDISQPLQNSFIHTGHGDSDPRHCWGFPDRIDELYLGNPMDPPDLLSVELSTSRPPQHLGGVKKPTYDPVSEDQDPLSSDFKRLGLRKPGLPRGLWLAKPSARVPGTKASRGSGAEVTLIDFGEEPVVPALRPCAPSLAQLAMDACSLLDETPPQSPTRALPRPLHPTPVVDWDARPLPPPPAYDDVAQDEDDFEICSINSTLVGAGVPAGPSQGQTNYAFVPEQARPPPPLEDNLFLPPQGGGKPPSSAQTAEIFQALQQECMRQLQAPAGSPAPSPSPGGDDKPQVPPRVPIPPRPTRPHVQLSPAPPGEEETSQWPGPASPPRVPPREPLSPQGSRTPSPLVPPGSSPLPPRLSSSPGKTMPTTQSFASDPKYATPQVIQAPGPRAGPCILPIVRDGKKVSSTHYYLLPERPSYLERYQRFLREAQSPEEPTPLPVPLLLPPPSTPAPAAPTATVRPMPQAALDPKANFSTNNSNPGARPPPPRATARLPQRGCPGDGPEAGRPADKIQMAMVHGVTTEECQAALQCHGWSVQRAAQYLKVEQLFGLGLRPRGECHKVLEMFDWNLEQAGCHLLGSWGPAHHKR
Method: FIGS. 9A-9E show ACK1 phosphorylates histone H4 at Tyrosine 88. (FIG. 9A) peptide were spotted followed by immunoblotting with indicated antibodies. (FIG. 9B) Equimolar amounts of purified ACK1 and H4 proteins were incubated in the presence of AIM-100 (100 nM) and reaction subjected to immunoblotting with pTyr antibodies. (FIG. 9C) In vitro kinase assay performed using purified ACK1 and H4, followed by immunoblotting with pY88-H4 antibodies. (FIG. 9D) H4 Y88-phosphorylation in vivo. LNCaP cells were treated with DZI-067, AIM-100 or Enzalutamide (7 uM, 16 hrs). The nuclear lysates were immunoprecipitated with pY88-H4 antibodies followed by immunoblotting with H4. Lower panel is input lysate. (FIG. 9E) LNCaP cells were treated with Crizotinib (1 uM, 16 hrs). The cell lysates were immunoprecipitated with pY88-H4 antibodies followed by immunoblotting with H4 (upper panel). Lower panel is input lysate immunblotted with H4 antibodies.
To assess direct binding of Ack1 to H4, in vitro kinase assay was performed using purified Ack1 and H4 (New England Biolabs). Human Ack1 were expressed in insect cells and purified to homogeneity (unpublished data). Immunoblotting with pY88-H4 and pTyr antibodies confirmed that indeed H4 is directly Tyr-phosphorylated by Ack1 (FIG. 9B).

`c1ccc(-c2oc3ncnc(NC[C@@H]4CCCO4)c3c2-c2ccccc2)cc1` [AIM-100] was tested, and the “pY88-H4 epigenetic marks at AR gene (intron 2, 3′UTR)” value [1] was “erased”, the IC50 [2] was 4 µM and the IC50 [3] was 7 µM. For the same molecule, the “H4 Tyr-phosphorylation by ACK1” value [4] was “H4 Tyr-phosphorylation is abrogated”.
